The source made the active and inactive calls. The rule behind the calls is not given here.
Legend:
[1] = biological target: LIM domain kinase 2 (Homo sapiens, UniProt P53671); experiment: LIMK2(LIM2LGV1) Takeda global kinase panel
[2] = biological target: Tyrosine-protein kinase SYK (Homo sapiens, UniProt P43405); experiment: Syk(SYK1LHY1) Takeda global kinase panel
[3] = biological target: STE20/SPS1-related proline-alanine-rich protein kinase (Homo sapiens, UniProt Q9UEW8); experiment: STLK3(ST39LGRJ) Takeda global kinase panel
[4] = biological target: Serine/threonine-protein kinase pim-3 (Homo sapiens, UniProt Q86V86); experiment: Pim3(PIM3LGP1) Takeda global kinase panel
[5] = biological target: Sodium-dependent dopamine transporter (Homo sapiens) (UniProt Q01959); conditions: Compound concentration 10.0 uM
[6] = organism: Rattus norvegicus; experiment: Inhibition of Rolipram at 10 µM in the Eurofins-Panlabs radioligand binding assay (Eurofins_assay_268811); format: protein assay; set-up: ligand concentration 1.8 nM; conditions: Compound concentration 10.0 uM
[7] = biological target: Alpha-1D adrenergic receptor (Homo sapiens) (UniProt P25100); conditions: Compound concentration 10.0 uM
[8] = biological target: 3-phosphoinositide-dependent protein kinase 1 (Homo sapiens, UniProt O15530); experiment: PDK1(PDP1LGA1) Takeda global kinase panel
[9] = biological target: Muscle, skeletal receptor tyrosine-protein kinase (Homo sapiens, UniProt O15146); experiment: MUSK(MUSKLGY1) Takeda global kinase panel
[10] = biological target: Serine/threonine-protein kinase TAO2 (Homo sapiens, UniProt Q9UL54); experiment: TAO2(TAO2LGF1) Takeda global kinase panel
[11] = biological target: Receptor-interacting serine/threonine-protein kinase 2 (Homo sapiens, UniProt O43353); experiment: RIPK2(RIP2LGI1) Takeda global kinase panel
[12] = biological target: Tyrosine-protein kinase receptor UFO (Homo sapiens, UniProt P30530); experiment: Axl(AXL1LGY1) Takeda global kinase panel
[13] = biological target: Serine/threonine-protein kinase ICK (Homo sapiens, UniProt Q9UPZ9); experiment: ICK(ICK1LGP1) Takeda global kinase panel
[14] = tested on: HT-29; experiment: HT29 necroptosis assay; format: functional, cell-based; conditions: Homo sapiens
[15] = organism: Rattus norvegicus; conditions: Compound concentration 10.0 uM
[16] = biological target: Serine/threonine-protein kinase PLK4 (Homo sapiens, UniProt O00444); experiment: PLK4(PLK4LGF1) Takeda global kinase panel
[17] = biological target: Ephrin type-A receptor 5 (Homo sapiens, UniProt P54756); experiment: EphA5(EPA5MGF1) Takeda global kinase panel
[18] = biological target: Androgen receptor (Homo sapiens) (UniProt P10275); conditions: Compound concentration 10.0 uM
[19] = biological target: Tyrosine-protein kinase Fgr (Homo sapiens, UniProt P09769); experiment: Fgr(FGR1LGF1) Takeda global kinase panel
[20] = biological target: Ribosomal protein S6 kinase alpha-5 (Homo sapiens, UniProt O75582); experiment: MSK1(R6A5LGY1) Takeda global kinase panel
[21] = biological target: Alpha-1B adrenergic receptor (Homo sapiens) (UniProt P35368); experiment: Adrenergic alpha1B Eurofins-Panlabs radioligand binding assay; set-up: ligand concentration 0.2 nM; conditions: Compound concentration 10.0 uM
[22] = biological target: cAMP-dependent protein kinase catalytic subunit gamma (Homo sapiens, UniProt P22612); experiment: PKAgamma(PRCGLGY1) Takeda global kinase panel
[23] = biological target: Serine/threonine-protein kinase Nek2 (Homo sapiens, UniProt P51955); experiment: Nek2(NEK2LHFA) Takeda global kinase panel
[24] = biological target: Cyclin-dependent kinase 3 (Homo sapiens, UniProt Q00526); experiment: CDK3(CDK3CGS1) Takeda global kinase panel
[25] = biological target: Cyclin-dependent kinase 14 (Homo sapiens, UniProt O94921); experiment: PFTAIRE1(CD14CGS1) Takeda global kinase panel
[26] = biological target: Serine/threonine-protein kinase ULK1 (Homo sapiens, UniProt O75385); experiment: ULK1(ULK1LGF1) Takeda global kinase panel
[27] = biological target: Serine/threonine-protein kinase VRK1 (Homo sapiens, UniProt Q99986); experiment: VRK1(VRK1LGRI) Takeda global kinase panel
[28] = biological target: Mitogen-activated protein kinase 6 (Homo sapiens, UniProt Q16659); experiment: ERK3(MAP6LHY1) Takeda global kinase panel
[29] = biological target: Serine/threonine-protein kinase SIK1 (Homo sapiens, UniProt P57059); experiment: SIK(SIK1LHY1) Takeda global kinase panel
[30] = biological target: SRSF protein kinase 3 (Homo sapiens, UniProt Q9UPE1); experiment: MSSK1(SRP3MHRL) Takeda global kinase panel
[31] = biological target: Bone morphogenetic protein receptor type-1A (Homo sapiens, UniProt P36894); experiment: BMPR1A(BM1APHRG) Takeda global kinase panel
[32] = biological target: Alpha-2C adrenergic receptor (Homo sapiens, UniProt P18825); experiment: GPCRScan assay: inhibition of Alpha2C; set-up: radioligand conc. used [nm] 0.5 – 1.0, parental cells stable MDCK
[33] = biological target: Serine/threonine-protein kinase N1 (Homo sapiens, UniProt Q16512); experiment: PKN1 [PRK1(PKN1LGY1)] Takeda global kinase panel
[34] = biological target: Tyrosine-protein kinase JAK3 (Homo sapiens, UniProt P52333); experiment: JAK3(JAK3LGRG) Takeda global kinase panel
[35] = organism: Rattus norvegicus; experiment: Inhibition of Thyroid Hormone at 10 µM in the Eurofins-Panlabs radioligand binding assay (Eurofins_assay_285900); format: protein assay; conditions: Compound concentration 10.0 uM
[36] = biological target: Mitogen-activated protein kinase 4 (Homo sapiens, UniProt P31152); experiment: ERK4(MAP4LGY1) Takeda global kinase panel
[37] = biological target: Rho-associated protein kinase 2 (Homo sapiens, UniProt O75116); experiment: ROCK2(ROC2LGG1) Takeda global kinase panel
[38] = biological target: Serine/threonine-protein kinase 32B (Homo sapiens, UniProt Q9NY57); experiment: YANK2(S32BLGY2) Takeda global kinase panel
[39] = biological target: Protein-tyrosine kinase 6 (Homo sapiens, UniProt Q13882); experiment: Brk(PTK6LGY1) Takeda global kinase panel
[40] = biological target: G protein-coupled receptor kinase 4 (Homo sapiens, UniProt P32298); experiment: GRK4(GRK4LGRI) Takeda global kinase panel
[41] = biological target: D(2) dopamine receptor (Homo sapiens) (UniProt P14416); conditions: Compound concentration 10.0 uM
[42] = biological target: Serine/threonine-protein kinase SIK2 (Homo sapiens, UniProt Q9H0K1); experiment: QIK(SIK2LGY1) Takeda global kinase panel
[43] = biological target: Mitogen-activated protein kinase 13 (Homo sapiens, UniProt O15264); experiment: p38delta(MP13LGP1) Takeda global kinase panel
[44] = biological target: Serine/threonine-protein kinase PAK 5 (Homo sapiens, UniProt Q9P286); experiment: PAK5(PAK7LGF1) Takeda global kinase panel
[45] = biological target: Dual specificity tyrosine-phosphorylation-regulated kinase 1A (Homo sapiens, UniProt Q13627); experiment: DYRK1A(DY1ALGP1) Takeda global kinase panel
[46] = biological target: Mitogen-activated protein kinase 9 (Homo sapiens, UniProt P45984); experiment: JNK2(MAP9LGF1) Takeda global kinase panel
[47] = biological target: Uncharacterized serine/threonine-protein kinase SBK3 (Homo sapiens, UniProt P0C264); experiment: SgK110(SG10LGF1) Takeda global kinase panel

Alpha-2C adrenergic receptor, sequence (P18825 whole entry): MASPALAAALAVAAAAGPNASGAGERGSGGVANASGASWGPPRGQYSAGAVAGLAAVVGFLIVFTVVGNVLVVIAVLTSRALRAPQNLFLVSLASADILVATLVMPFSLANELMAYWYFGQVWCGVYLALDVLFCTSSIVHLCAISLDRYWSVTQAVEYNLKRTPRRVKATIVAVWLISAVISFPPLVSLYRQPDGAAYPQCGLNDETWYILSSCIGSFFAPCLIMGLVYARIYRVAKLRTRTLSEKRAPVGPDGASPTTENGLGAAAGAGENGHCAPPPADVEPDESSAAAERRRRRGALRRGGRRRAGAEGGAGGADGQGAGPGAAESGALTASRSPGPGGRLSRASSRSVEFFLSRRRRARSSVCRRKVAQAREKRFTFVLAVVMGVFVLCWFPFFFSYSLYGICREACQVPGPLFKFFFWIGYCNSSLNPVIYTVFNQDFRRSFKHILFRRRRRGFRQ
Serine/threonine-protein kinase 32B, sequence (Q9NY57 whole entry): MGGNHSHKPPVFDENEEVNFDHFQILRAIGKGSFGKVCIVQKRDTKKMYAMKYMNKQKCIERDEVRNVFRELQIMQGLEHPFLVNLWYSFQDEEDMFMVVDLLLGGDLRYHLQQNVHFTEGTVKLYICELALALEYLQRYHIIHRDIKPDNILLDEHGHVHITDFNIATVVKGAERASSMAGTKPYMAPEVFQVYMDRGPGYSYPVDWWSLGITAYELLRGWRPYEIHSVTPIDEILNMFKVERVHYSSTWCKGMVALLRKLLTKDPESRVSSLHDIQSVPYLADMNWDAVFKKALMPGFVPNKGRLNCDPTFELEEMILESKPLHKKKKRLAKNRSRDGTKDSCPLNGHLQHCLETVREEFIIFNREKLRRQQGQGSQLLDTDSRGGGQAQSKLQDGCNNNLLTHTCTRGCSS
Ribosomal protein S6 kinase alpha-5, sequence (O75582 whole entry): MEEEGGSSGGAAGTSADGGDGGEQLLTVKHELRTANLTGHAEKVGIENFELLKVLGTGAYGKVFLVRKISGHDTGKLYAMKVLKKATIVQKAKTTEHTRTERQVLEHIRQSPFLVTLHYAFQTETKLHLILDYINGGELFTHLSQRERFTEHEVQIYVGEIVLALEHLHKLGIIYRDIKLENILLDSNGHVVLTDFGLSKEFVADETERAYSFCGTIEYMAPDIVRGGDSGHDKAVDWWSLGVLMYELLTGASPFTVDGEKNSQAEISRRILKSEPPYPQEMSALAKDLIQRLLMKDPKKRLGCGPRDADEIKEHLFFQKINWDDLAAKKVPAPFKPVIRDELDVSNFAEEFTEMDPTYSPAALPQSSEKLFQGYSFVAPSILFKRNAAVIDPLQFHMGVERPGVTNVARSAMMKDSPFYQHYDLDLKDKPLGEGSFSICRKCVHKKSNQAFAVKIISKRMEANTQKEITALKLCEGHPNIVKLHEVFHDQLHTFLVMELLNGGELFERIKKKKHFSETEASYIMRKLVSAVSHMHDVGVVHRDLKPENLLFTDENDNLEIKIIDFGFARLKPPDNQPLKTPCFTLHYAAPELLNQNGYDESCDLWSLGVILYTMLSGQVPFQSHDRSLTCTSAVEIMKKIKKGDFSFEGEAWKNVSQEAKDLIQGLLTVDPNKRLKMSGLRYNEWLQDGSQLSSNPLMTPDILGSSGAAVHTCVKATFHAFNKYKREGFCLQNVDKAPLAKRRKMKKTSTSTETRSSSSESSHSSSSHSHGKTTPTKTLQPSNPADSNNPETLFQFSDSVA
Serine/threonine-protein kinase SIK2, sequence (Q9H0K1 whole entry): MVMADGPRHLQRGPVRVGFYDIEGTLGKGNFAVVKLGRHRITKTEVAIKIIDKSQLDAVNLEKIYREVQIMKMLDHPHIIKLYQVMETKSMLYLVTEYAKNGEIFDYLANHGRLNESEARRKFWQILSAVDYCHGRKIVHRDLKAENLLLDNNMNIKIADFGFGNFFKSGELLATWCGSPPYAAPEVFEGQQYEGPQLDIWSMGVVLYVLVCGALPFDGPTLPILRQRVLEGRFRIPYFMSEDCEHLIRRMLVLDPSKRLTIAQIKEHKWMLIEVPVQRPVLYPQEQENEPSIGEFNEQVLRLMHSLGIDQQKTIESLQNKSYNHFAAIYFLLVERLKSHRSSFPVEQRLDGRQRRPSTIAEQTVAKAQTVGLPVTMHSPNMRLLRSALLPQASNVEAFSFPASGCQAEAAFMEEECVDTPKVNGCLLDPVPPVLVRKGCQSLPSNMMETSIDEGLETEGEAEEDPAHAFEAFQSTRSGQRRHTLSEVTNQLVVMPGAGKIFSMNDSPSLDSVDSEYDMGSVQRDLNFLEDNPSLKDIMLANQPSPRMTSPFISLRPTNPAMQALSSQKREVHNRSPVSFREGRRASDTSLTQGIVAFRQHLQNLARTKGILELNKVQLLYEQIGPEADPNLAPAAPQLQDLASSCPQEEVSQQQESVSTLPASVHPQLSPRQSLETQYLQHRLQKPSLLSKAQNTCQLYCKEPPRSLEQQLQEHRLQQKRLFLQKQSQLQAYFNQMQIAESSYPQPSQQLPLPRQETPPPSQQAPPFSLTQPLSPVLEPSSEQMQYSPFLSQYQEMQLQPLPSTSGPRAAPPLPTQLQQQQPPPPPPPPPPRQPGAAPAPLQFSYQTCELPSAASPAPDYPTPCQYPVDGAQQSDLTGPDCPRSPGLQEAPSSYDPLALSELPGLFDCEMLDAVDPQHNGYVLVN
Tyrosine-protein kinase receptor UFO, sequence (P30530 whole entry): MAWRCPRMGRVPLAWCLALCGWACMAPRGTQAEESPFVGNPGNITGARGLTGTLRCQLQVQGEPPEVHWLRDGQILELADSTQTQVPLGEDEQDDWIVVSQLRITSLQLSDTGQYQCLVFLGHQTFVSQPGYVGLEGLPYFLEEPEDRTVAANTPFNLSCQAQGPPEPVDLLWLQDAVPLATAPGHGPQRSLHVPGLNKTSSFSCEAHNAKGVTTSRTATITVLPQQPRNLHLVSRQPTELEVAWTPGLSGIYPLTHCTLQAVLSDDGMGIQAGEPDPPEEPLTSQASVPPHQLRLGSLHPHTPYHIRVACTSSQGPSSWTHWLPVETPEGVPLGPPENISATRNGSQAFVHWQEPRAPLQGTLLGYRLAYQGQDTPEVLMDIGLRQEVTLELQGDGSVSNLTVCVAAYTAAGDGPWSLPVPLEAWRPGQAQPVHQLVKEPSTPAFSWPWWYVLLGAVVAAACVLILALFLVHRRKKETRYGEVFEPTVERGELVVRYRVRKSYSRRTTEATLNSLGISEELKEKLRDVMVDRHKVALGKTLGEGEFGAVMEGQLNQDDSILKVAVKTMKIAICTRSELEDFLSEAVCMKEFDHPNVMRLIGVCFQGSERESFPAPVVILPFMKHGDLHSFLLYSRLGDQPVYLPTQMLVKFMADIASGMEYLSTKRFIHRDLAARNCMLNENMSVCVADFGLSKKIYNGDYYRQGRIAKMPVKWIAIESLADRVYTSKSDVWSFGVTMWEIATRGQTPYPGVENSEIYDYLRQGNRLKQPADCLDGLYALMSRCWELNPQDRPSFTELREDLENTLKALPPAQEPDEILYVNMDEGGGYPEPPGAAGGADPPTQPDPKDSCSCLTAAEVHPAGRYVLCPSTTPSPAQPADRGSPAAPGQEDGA
Muscle, skeletal receptor tyrosine-protein kinase, sequence (O15146 whole entry): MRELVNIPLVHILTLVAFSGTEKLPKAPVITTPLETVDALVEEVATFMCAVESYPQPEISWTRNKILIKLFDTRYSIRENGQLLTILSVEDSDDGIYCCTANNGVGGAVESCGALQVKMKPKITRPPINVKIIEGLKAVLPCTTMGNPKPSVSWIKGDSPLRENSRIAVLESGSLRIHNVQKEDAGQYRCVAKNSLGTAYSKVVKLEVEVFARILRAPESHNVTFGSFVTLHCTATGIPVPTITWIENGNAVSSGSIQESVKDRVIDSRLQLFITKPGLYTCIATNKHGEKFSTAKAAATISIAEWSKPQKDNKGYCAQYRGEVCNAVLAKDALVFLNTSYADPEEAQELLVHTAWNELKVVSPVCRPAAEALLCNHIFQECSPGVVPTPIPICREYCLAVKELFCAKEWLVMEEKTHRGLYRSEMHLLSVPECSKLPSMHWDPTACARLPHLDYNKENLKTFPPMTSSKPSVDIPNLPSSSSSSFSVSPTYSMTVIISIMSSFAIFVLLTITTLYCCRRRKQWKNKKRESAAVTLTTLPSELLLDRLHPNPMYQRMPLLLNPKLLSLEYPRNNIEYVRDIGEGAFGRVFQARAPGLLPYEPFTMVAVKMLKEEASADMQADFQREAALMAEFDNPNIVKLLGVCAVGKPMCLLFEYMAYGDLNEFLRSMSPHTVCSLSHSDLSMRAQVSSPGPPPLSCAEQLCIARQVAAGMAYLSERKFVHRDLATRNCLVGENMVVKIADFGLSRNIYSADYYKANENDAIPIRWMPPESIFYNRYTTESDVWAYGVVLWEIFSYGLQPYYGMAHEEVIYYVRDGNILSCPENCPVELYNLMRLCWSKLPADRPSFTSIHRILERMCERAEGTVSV
SRSF protein kinase 3, sequence (Q9UPE1 whole entry): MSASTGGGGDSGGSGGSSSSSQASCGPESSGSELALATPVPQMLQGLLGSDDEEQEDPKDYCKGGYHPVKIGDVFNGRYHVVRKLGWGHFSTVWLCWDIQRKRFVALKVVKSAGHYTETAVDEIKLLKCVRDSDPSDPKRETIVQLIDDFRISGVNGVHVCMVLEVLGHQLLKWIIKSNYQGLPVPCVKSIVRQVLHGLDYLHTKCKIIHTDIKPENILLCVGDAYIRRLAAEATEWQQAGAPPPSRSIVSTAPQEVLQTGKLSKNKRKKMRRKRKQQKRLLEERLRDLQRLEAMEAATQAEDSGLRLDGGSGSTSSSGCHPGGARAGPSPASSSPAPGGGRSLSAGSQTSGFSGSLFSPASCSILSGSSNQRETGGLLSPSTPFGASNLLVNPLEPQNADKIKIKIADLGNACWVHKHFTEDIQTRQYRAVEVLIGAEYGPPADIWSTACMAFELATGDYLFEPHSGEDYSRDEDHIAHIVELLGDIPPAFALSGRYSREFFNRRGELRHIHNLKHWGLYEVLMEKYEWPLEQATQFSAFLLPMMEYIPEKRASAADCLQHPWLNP

CN1C(=O)[C@@H](N2CCc3c(nn(Cc4ccccc4)c3Br)C2=O)COc2ccccc21 [TP-030-2]
IC50 [1]: 1000 nM
IC50 [2]: 1000 nM
IC50 [3]: 1000 nM
IC50 [4]: 1000 nM
inhibition [5]: -8.33%
inhibition [6]: 0%
inhibition [7]: 5.52%
IC50 [8]: 1000 nM
IC50 [9]: 1000 nM
IC50 [10]: 1000 nM
IC50 [11]: 1000 nM
IC50 [12]: 1000 nM
IC50 [13]: 1000 nM
IC50 [14]: 1.3 nM (active)
inhibition [15]: -6%
IC50 [16]: 1000 nM
IC50 [17]: 1000 nM
inhibition [18]: 6%
IC50 [19]: 1000 nM
IC50 [20]: 1000 nM
inhibition [21]: -2%
IC50 [22]: 1000 nM
IC50 [23]: 1000 nM
IC50 [24]: 1000 nM
IC50 [25]: 1000 nM
IC50 [26]: 1000 nM
IC50 [27]: 1000 nM
IC50 [28]: 1000 nM
IC50 [29]: 1000 nM
IC50 [30]: 1000 nM
IC50 [31]: 1000 nM
Ki ([32]; read-out: Ki): 2950 nM
Ki ([32]; read-out: pKi (converted)): 2820 nM
IC50 [33]: 1000 nM
IC50 [34]: 1000 nM
inhibition [35]: 4%
IC50 [36]: 1000 nM
IC50 [37]: 1000 nM
IC50 [38]: 1000 nM
IC50 [39]: 1000 nM
IC50 [40]: 1000 nM
inhibition [41]: 3%
IC50 [42]: 1000 nM
IC50 [43]: 1000 nM
IC50 [44]: 1000 nM
IC50 [45]: 1000 nM
IC50 [46]: 1000 nM
IC50 [47]: 1000 nM
